PubChem BioAssay (NCI)
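Briefly, cells in 96-well plates were exposed to five compound concentrations for 48 h, and endpoints were estimated by linear interpolation. Definition used: TGI = concentration required for complete inhibition of growth.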

Assays:
Assay in all cases: DTP human tumour cell line panel, 48 h
NCI-H460 lung = tested on: NCI-H460 lung
CAKI-1 renal = tested on: CAKI-1 renal
HCT-116 colon = tested on: HCT-116 colon
SW-620 colon = tested on: SW-620 colon
NCI-H23 lung = tested on: NCI-H23 lung
A549 NSCLC = tested on: A549 NSCLC
SR leukemia = tested on: SR leukemia
SK-MEL-5 melanoma = tested on: SK-MEL-5 melanoma
OVCAR-8 ovarian = tested on: OVCAR-8 ovarian
SF-268 CNS = tested on: SF-268 CNS
SNB-19 CNS = tested on: SNB-19 CNS
U251 CNS = tested on: U251 CNS
SF-295 CNS = tested on: SF-295 CNS
PC-3 prostate = tested on: PC-3 prostate
M14 melanoma = tested on: M14 melanoma
T-47D breast = tested on: T-47D breast
COLO 205 colon = tested on: COLO 205 colon
TK-10 renal = tested on: TK-10 renal
A498 renal = tested on: A498 renal
OVCAR-3 ovarian = tested on: OVCAR-3 ovarian
SN12C renal = tested on: SN12C renal
ACHN renal = tested on: ACHN renal
MDA-MB-435 = tested on: MDA-MB-435
CCRF-CEM leukemia = tested on: CCRF-CEM leukemia
MOLT-4 leukemia = tested on: MOLT-4 leukemia
SF-539 CNS = tested on: SF-539 CNS
KM12 colon = tested on: KM12 colon
RPMI-8226 leukemia = tested on: RPMI-8226 leukemia
K-562 leukemia = tested on: K-562 leukemia
HS 578T breast = tested on: HS 578T breast
UACC-257 melanoma = tested on: UACC-257 melanoma
HCT-15 colon = tested on: HCT-15 colon
UO-31 renal = tested on: UO-31 renal
EKVX NSCLC = tested on: EKVX NSCLC
OVCAR-5 ovarian = tested on: OVCAR-5 ovarian
DU-145 prostate = tested on: DU-145 prostate
RXF 393 renal = tested on: RXF 393 renal
MCF7 breast = tested on: MCF7 breast
MDA-N = tested on: MDA-N
UACC-62 melanoma = tested on: UACC-62 melanoma
SK-MEL-28 melanoma = tested on: SK-MEL-28 melanoma
IGROV1 ovarian = tested on: IGROV1 ovarian
HOP-62 NSCLC = tested on: HOP-62 NSCLC
LOX IMVI melanoma = tested on: LOX IMVI melanoma
HOP-92 NSCLC = tested on: HOP-92 NSCLC
HCC-2998 colon = tested on: HCC-2998 colon
SK-MEL-2 melanoma = tested on: SK-MEL-2 melanoma
MDA-MB-231 breast = tested on: MDA-MB-231 breast
NCI/ADR-RES ovarian = tested on: NCI/ADR-RES ovarian
NCI-H226 lung = tested on: NCI-H226 lung
OVCAR-4 ovarian = tested on: OVCAR-4 ovarian
HT29 colon = tested on: HT29 colon
BT-549 breast = tested on: BT-549 breast
HL-60(TB) leukemia = tested on: HL-60(TB) leukemia
NCI-H522 lung = tested on: NCI-H522 lung
786-0 renal = tested on: 786-0 renal
SK-OV-3 ovarian = tested on: SK-OV-3 ovarian
SNB-75 CNS = tested on: SNB-75 CNS
MALME-3M melanoma = tested on: MALME-3M melanoma

CN(C)c1ccc2c3c(c(=O)oc2c1)CCC3
TGI (NCI-H460 lung): > 100 µM | TGI (CAKI-1 renal): > 100 µM | TGI (HCT-116 colon): > 100 µM | TGI (SW-620 colon): > 100 µM | TGI (NCI-H23 lung): > 100 µM | TGI (A549 NSCLC): > 100 µM | TGI (SR leukemia): > 100 µM | TGI (SK-MEL-5 melanoma): > 100 µM | TGI (OVCAR-8 ovarian): > 100 µM | TGI (SF-268 CNS): > 100 µM | TGI (SNB-19 CNS): > 100 µM | TGI (U251 CNS): > 100 µM | TGI (SF-295 CNS): > 100 µM | TGI (PC-3 prostate): > 100 µM | TGI (M14 melanoma): > 100 µM | TGI (T-47D breast): > 100 µM | TGI (COLO 205 colon): > 100 µM | TGI (TK-10 renal): > 100 µM | TGI (A498 renal): > 100 µM | TGI (OVCAR-3 ovarian): > 100 µM | TGI (SN12C renal): > 100 µM | TGI (ACHN renal): > 100 µM | TGI (MDA-MB-435): > 100 µM | TGI (CCRF-CEM leukemia): > 100 µM | TGI (MOLT-4 leukemia): > 100 µM | TGI (SF-539 CNS): > 100 µM | TGI (KM12 colon): > 100 µM | TGI (RPMI-8226 leukemia): > 100 µM | TGI (K-562 leukemia): > 100 µM | TGI (HS 578T breast): > 100 µM | TGI (UACC-257 melanoma): > 100 µM | TGI (HCT-15 colon): > 100 µM | TGI (UO-31 renal): > 100 µM | TGI (EKVX NSCLC): > 100 µM | TGI (OVCAR-5 ovarian): > 100 µM | TGI (DU-145 prostate): > 100 µM | TGI (RXF 393 renal): > 100 µM | TGI (MCF7 breast): > 100 µM | TGI (MDA-N): > 100 µM | TGI (UACC-62 melanoma): > 100 µM | TGI (SK-MEL-28 melanoma): > 100 µM | TGI (IGROV1 ovarian): > 100 µM | TGI (HOP-62 NSCLC): > 100 µM | TGI (LOX IMVI melanoma): > 100 µM | TGI (HOP-92 NSCLC): > 100 µM | TGI (HCC-2998 colon): > 100 µM | TGI (SK-MEL-2 melanoma): > 100 µM | TGI (MDA-MB-231 breast): > 100 µM | TGI (NCI/ADR-RES ovarian): > 100 µM | TGI (NCI-H226 lung): > 100 µM | TGI (OVCAR-4 ovarian): > 100 µM | TGI (HT29 colon): > 100 µM | TGI (BT-549 breast): > 100 µM | TGI (HL-60(TB) leukemia): > 100 µM | TGI (NCI-H522 lung): > 100 µM | TGI (786-0 renal): > 100 µM

C=C1C(=O)OC2CC3(CO3)C3C(O)C(O)CC3(C)CC12 (centres undefined)
TGI (SK-OV-3 ovarian): > 100 µM | TGI (NCI-H460 lung): > 100 µM | TGI (CAKI-1 renal): 36.6 µM | TGI (HCT-116 colon): 38 µM | TGI (SNB-75 CNS): > 100 µM | TGI (SW-620 colon): 32.3 µM | TGI (NCI-H23 lung): 47.9 µM | TGI (A549 NSCLC): > 100 µM | TGI (SR leukemia): 87.4 µM | TGI (SK-MEL-5 melanoma): 42 µM | TGI (OVCAR-8 ovarian): 45.3 µM | TGI (SF-268 CNS): > 100 µM | TGI (SNB-19 CNS): > 100 µM | TGI (U251 CNS): > 100 µM | TGI (SF-295 CNS): > 100 µM | TGI (PC-3 prostate): > 100 µM | TGI (M14 melanoma): 36.7 µM | TGI (T-47D breast): > 100 µM | TGI (COLO 205 colon): 81.2 µM | TGI (TK-10 renal): > 100 µM | TGI (A498 renal): 64.2 µM | TGI (OVCAR-3 ovarian): 55.6 µM | TGI (SN12C renal): 68.1 µM | TGI (ACHN renal): 35.5 µM | TGI (MDA-MB-435): 83.1 µM | TGI (CCRF-CEM leukemia): 45.9 µM | TGI (MOLT-4 leukemia): 46.7 µM | TGI (SF-539 CNS): 39.2 µM | TGI (KM12 colon): > 100 µM | TGI (RPMI-8226 leukemia): > 100 µM | TGI (K-562 leukemia): > 100 µM | TGI (HS 578T breast): > 100 µM | TGI (UACC-257 melanoma): > 100 µM | TGI (HCT-15 colon): 34.1 µM | TGI (EKVX NSCLC): 37.2 µM | TGI (OVCAR-5 ovarian): 71.7 µM | TGI (DU-145 prostate): > 100 µM | TGI (MALME-3M melanoma): 37.5 µM | TGI (RXF 393 renal): 31.9 µM | TGI (MCF7 breast): 62.1 µM | TGI (MDA-N): 81.6 µM | TGI (UACC-62 melanoma): 38 µM | TGI (SK-MEL-28 melanoma): 34.8 µM | TGI (IGROV1 ovarian): > 100 µM | TGI (HOP-62 NSCLC): > 100 µM | TGI (LOX IMVI melanoma): 23.5 µM | TGI (HOP-92 NSCLC): 50.7 µM | TGI (HCC-2998 colon): 33.9 µM | TGI (SK-MEL-2 melanoma): 38.4 µM | TGI (MDA-MB-231 breast): 60.5 µM | TGI (NCI/ADR-RES ovarian): > 100 µM | TGI (NCI-H226 lung): > 100 µM | TGI (OVCAR-4 ovarian): > 100 µM | TGI (HT29 colon): > 100 µM | TGI (BT-549 breast): 33.9 µM | TGI (HL-60(TB) leukemia): 44.6 µM | TGI (NCI-H522 lung): 27.9 µM | TGI (786-0 renal): > 100 µM
